US8653096B2, “Chemokine receptor antagonists and methods of use thereof” (Millennium Pharmaceuticals, Inc., priority 2001, dated 2014)

Target: T1, RANTES/MIP-1α chemokine receptor (CCR1) in THP-1 cell membranes (Homo sapiens, UniProt P32246)
T1 construct: Membranes were prepared from THP-1 cells (ATCC #TIB202); host or cells: THP-1 cells (membrane preparation)
T1 sequence (P32246 1-355): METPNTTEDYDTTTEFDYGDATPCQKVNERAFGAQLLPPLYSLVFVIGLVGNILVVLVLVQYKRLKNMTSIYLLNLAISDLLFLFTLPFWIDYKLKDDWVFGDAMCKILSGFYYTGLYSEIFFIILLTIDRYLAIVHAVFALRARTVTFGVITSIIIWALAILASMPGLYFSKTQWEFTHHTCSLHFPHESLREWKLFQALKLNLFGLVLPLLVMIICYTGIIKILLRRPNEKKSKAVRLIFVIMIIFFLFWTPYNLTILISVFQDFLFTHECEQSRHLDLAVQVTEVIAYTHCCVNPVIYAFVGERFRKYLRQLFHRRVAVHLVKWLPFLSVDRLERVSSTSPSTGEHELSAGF
Assay: Receptor binding assay: 125I-RANTES or 125I-MIP-1α binding to THP-1 cell membranes
Conditions: inhibitor concentration required for 50% inhibition of specific binding; 125I-RANTES or 125I-MIP-1α as ligand, THP-1 cell membranes; read-out: IC50

| Molecule | IC50 [nM] |
| --- | --- |
| 1-[3-(5,11-Dihydro-7-methoxy[1]benzoxepino[2,3-b]pyridin-5-ylidene)propyl]-4-(2-hydroxyphenyl)piperidine [Example 184] | < 10000 |
| 1-[3-(5,11-Dihydro-7-methoxy[1]benzoxepino[2,3-b]pyridin-5-ylidene)propyl]-4-(4-fluorophenyl)piperidin-4-ol [Example 77] | < 1000 |
| 4-(4-Chlorophenyl)-1-[3-(5,11-dihydro-7-phenyl[1]benzoxepino[2,3-b]pyridin-5-ylidene)propyl]piperidin-4-ol [Example 291] | < 1000 |
| 4-(5-Chloro-2-keto-1-benzimidazolinyl)-1-[3-(5,11-dihydro-7-methoxy[1]benzoxepino[2,3-b]pyridin-5-ylidene)propyl]piperidine [Example 85] | < 1000 |
| COC(=O)C1(c2ccc(Cl)cc2)CCN(CCC=C2c3cc(C(C)(C)O)ccc3OCc3ncccc32)CC1 [Example 458, 4-(4-Chloro-phenyl)-1-{3-[7-(1-hydroxy-1-methyl-ethyl)-11H-10-oxa-1-aza-dibenzo[a,d]cyclohepten-5-ylidene]-propyl}-piperidine-4-carboxylic acid methyl ester] | < 10000 |
| NCc1ccc2c(c1)C(=CCCN1CCC(O)(c3ccc(Cl)cc3)CC1)c1ccccc1CO2 [Example 29, 1-[3-(2-Aminomethyl-6,11-dihydrodibenz[b,e]oxepin-11-ylidene)propyl]-4-(4-chlorophenyl)piperidin-4-ol] | < 1000 |
| CC(C)(O)c1ccc2c(c1)C(=CCCN1CC[C@@](O)(c3ccc(Cl)cc3)[C@H](C#N)C1)c1cccnc1CO2 (relative stereo) [Example 480, Cis-4-(4-Chloro-phenyl)-4-hydroxy-1-{3-[7-(1-hydroxyl-1-methyl-ethyl)-11H-10-oxa-1-aza-dibenzo[a,d]cyclohepten-5-ylidene]-propyl}-piperidin-3-carbonitrile] | < 1000 |
| 1′-[3-(5,11-Dihydro-7-methoxy[1]benzoxepino[2,3-b]pyridin-5-ylidene)propyl]spiro[isobenzofuran-1(3H), 4′-piperidine] [Example 90] | < 1000 |
| COc1ccc2c(c1)C(=CCCN1CCC(O)(c3ccc(C)cc3)CC1)c1cccnc1CO2 [Example 78, 1-[3-(5,11-Dihydro-7-methoxy[1]benzoxepino[2,3-b]pyridin-5-ylidene)propyl]-4-(p-toly)piperidin-4-ol] | < 1000 |
| 4-(4-Chlorophenyl)-1-[3-(5,11-dihydro-7-(2-morpholinoethyl)oxy[1]benzoxepino[2,3-b]pyridin-5-ylidene)propyl]piperidin-4-ol [Example 52] | < 1000 |
| CC(C)(O)c1ccc2c(c1)C(=CCCN1CCC(OCc3ccc(Cl)cc3)C1)c1cccnc1CO2 (stereo not shown) [Example 549, 2-(5-{3-[3-(4-Chloro-benzyloxy)-pyrrolidin-1-yl]-propylidene}-5,11-dihydro-10-oxa-1-aza-dibenzo[a,d]cyclohepten-7-yl)-propan-2-ol] | < 1000 |
| CC(C)(O)c1ccc2c(c1)C(=CCCN1CCC(C#N)(c3ccc(Cl)cc3)CC1)c1cccnc1CO2 [Example 456, 4-(4-Chloro-phenyl)-1-{3-[7-(1-hydroxy-1-methyl-ethyl)-11H-10-oxa-1-aza-dibenzo-[a,d]cyclohepten-5-ylidene]-propyl}-piperidine-4-carbonitrile] | < 1000 |
| 1-[3-(7-Carbamoyl-5,11-dihydro[1]benzoxepino[2,3-b]pyridin-5-ylidene)propyl]-4-(4-chlorophenyl)piperidin-4-ol [Example 269] | < 1000 |
| O=[N+]([O-])c1ccc2c(c1)C(=CCCN1CCC(O)(c3ccc(Cl)cc3)CC1)c1ccccc1CO2 [Example 30, 4-(4-Chlorophenyl)-1-[3-(6,11-dihydro-2-nitrodibenz[b,e]oxepin-11-ylidene)propyl]piperidin-4-ol] | < 1000 |
| CCN(CCc1ccc(Cl)cc1)[C@@H]1CCN(CCC=C2c3cc(C(C)(C)O)ccc3OCc3ncccc32)C1 [Example 528] | < 10000 |
| CC(O)C1(c2ccc(Cl)cc2)CCN(CCC=C2c3cc(C(C)(C)O)ccc3OCc3ncccc32)CC1 (stereo not shown) [Example 462, 2-(5-{3-[4-(4-chloro-phenyl)-4-(1-hydroxy-ethyl)-piperidin-1-yl]-propylidene}-5,11-dihydro-10-oxa-1-aza-dibenzo [a,d]cyclohepten-7-yl)-propan-2-ol] | < 10000 |
| CC(C)(O)c1ccc2c(c1)C(=CCCN1CC[C@](O)(c3ccc(Cl)cc3)C(C)(C)C1)c1cccnc1CO2 [Example 502, S-4-(4-Chloro-phenyl)-1-{3-[7-(1-hydroxy-1-methyl-ethyl)-11H-10-oxa-1-aza-dibenzo[a,d]cyclohepten-5-ylidene]-propyl}-3,3-dimethyl-piperidin-4-ol] | < 1000 |

| Molecule | IC50 [nM] |
| --- | --- |
| 4-(4-Chlorophenyl)-1-[3-(7-(2-furyl)-5,11-dihydro[1]benzoxepino[2,3-b]pyridin-5-ylidene)propyl]piperidin-4-ol [Example 292] | < 1000 |
| C[C@@H]1CN(CCC=C2c3cc(C(C)(C)O)ccc3OCc3ncccc32)CCN1c1ccc(Cl)cc1 [Example 557, 2-(5-{3-[4-(4-Chloro-phenyl)-3-(R)-methyl-piperazin-1-yl]-propylidene}-5,11-dihydro-10-oxa-1-aza-dibenzo[a,d]cyclohepten-7-yl)-propan-2-ol] | < 1000 |
| 4-(4-Chlorophenyl)-1-[3-(5,11-dihydro-7-ethoxy[1]benzoxepino[2,3-b]pyridin-5-ylidene)propyl]piperidine [Example 152] | < 1000 |
| CC(C)(O)c1ccc2c(c1)C(=CCCN1CC[C@@H](N3CC(=O)Nc4cc(Cl)ccc4C3)C1)c1cccnc1CO2 [Example 534, (R)-8-Chloro-4-(1-{3-[7-(-hydroxy-1-methyl-ethyl)-11H-10-oxa-1-aza-dibenzo[a,d]cyclohepten-5-ylidene]-propyl}-pyrrolidine-3-yl)-1,3,4,5-tetrahydro-benzo[e][1,4]diazepin-2-one] | < 1000 |
| CCN(CC)CCOCC1(C)CN(CCC=C2c3cc(C(C)(C)O)ccc3OCc3ncccc32)CCC1(O)c1ccc(Cl)cc1 (stereo not shown) [Example 486] | < 1000 |
| 4-(4-Chlorophenyl)-1-[3-(5,11-dihydro-7-(1-butoxy)carbonyl-[1]benzoxepino[2,3-b]pyridin-5-ylidene) propyl]piperidine-4-ol [Example 427] | < 1000 |
| CCC(=O)N(Cc1ccc(Cl)cc1)C1CCN(CCC=C2c3cc(C(C)(C)O)ccc3OCc3ncccc32)C1 (stereo not shown) [Example 563, N-(4-Chloro-benzyl)-N-(1-{3-[7-(1-hydroxy-1-methyl-ethyl)-11H-10-oxa-1-aza-dibenzo[a,d]cyclohepten-5-ylidene]-propyl}-pyrrolidin-3-yl)-propionamide] | < 10000 |
| 1-[3-(5,11-Dihydro-7-methoxy[1]benzoxepino[2,3-b]pyridin-5-ylidene)propyl]-4-(4-fluoro-3-methylphenyl)piperidin-4-ol [Example 143] | < 1000 |
| COCCOc1ccc2c(c1)C(=CCCN1CCC(O)(c3ccc(Cl)cc3)C(C)(C)C1)c1cccnc1CO2 (stereo not shown) [Example 508, 4-(4-Chloro-phenyl)-1-{3-[7-(2-methoxy-ethoxy)-11H-10-oxa-1-aza-dibenzo [a,d]cyclohepten-5-ylidene]-propyl}-3,3-dimethyl-piperidin-4-ol] | < 1000 |
| CN(C)C(=O)C(C)(C)Oc1ccc2c(c1)C(=CCCN1CCC(O)(c3ccc(Cl)cc3)CC1)c1cccnc1CO2 [Example 176, 4-(4-Chlorophenyl)-1-[3-(7-(1-dimethyaminocarbonyl-1-methyl)ethyloxy-5,11-dihydro[1]benzoxepino[2,3-b]pyridin-5-ylidene)propyl]piperidin-4-ol] | < 1000 |
| 4-(4-Cyanophenyl)-1-[3-(5,11-dihydro-7-methoxy[1]benzoxepino[2,3-b]pyridin-5-ylidene)propyl]piperidin-4-ol [Example 141] | < 1000 |
| 4-(4-Chlorophenyl)-1-[3-(5,11-dihydro-7-(1-pyrrolidino)methyl [1]benzoxepino[2,3-b]pyridin-5-ylidene)propyl]piperidin-4-ol [Example 279] | < 1000 |
| CCOCCOc1ccc2c(c1)C(=CCCN1CCC(O)(c3ccc(Cl)cc3)CC1)c1cccnc1CO2 [Example 203] | < 1000 |
| 4-(4-Chlorophenyl)-1-[3-(7-cyclopropylmethyloxy-5,11-dihydro [1]benzoxepino[2,3-b]pyridin-5-ylidene)propyl]piperidin-4-ol [Example 130] | < 1000 |
| 4-(4-Chlorophenyl)-1-[3-(5,11-dihydro-7-isopropoxy[1]benzoxepino[2,3-b]pyridin-5-ylidene)propyl]piperidin-4-ol [Example 47] | < 1000 |
| CN(C)C(=O)C=Cc1ccc2c(c1)C(=CCCN1CCC(O)(c3ccc(Cl)cc3)CC1)c1cccnc1CO2 [Example 215, 4-(4-Chlorophenyl)-1-[3-(7-(2-dimethylaminocarboxy)ethenyl-5,11-dihydro[1]benzoxepino[2,3-b]pyridin-5-ylidene)propyl]piperidin-4-ol] | < 1000 |
| 4-(4-Chlorophenyl)-1-[3-(7-cyclopentoxy-5,11-dihydro[1]benzoxepino[2,3-b]pyridin-5-ylidene)propyl]piperidin-4-ol [Example 174] | < 1000 |
